# Legend:
# SU-DHL-4 = test: CellTiter-Glo cell viability, SU-DHL-4; assay type: cell-based; conditions: Homo sapiens
# Procedure: Human DLBCL cell lines SU-DHL-4 (#ACC 495) and SU-DHL-10 (#ACC 576) were obtained from DSMZ (German Collection of Microorganisms and Cell Cultures). The supplier used PCR-based DNA profiling of polymorphic short tandem repeats for authentication and Mycoplasma testing prior to shipment. Cells were cultured in suspension at 37°C in a humidified atmosphere containing 5% CO2. CDK9 inhibitors KB-0742 (MedChemExpress, #HY-137478A), enitociclib, and atuveciclib ([…] Pharma, Inc.) were used. A subset of 35 lymphoma cell lines is from a 500-cell line panel where the effect of enitociclib on cell viability using CellTiter-Glo luminescent cell viability was determined (OmniScreen, CrownBioscience). Genetic status and gene expression level for MYC and MCL1 was obtained from CrownBioscience.
# SU-DHL-10 xenografts = test: SU-DHL-10 xenograft antitumor efficacy; assay type: in vivo, C.B-17 SCID mice
# Procedure: A total of 10 × 10^6 SU-DHL-10 cells were inoculated subcutaneously into 6–8 weeks old female C.B-17 SCID mice (Iffa Credo, Brussels). The mice were randomized to treatment groups at a tumor volume of 63–104 mm^3 and treated (intravenously, once weekly) with 10 mg/kg enitociclib (60% PEG400, 10% ethanol, water), 15 mg/kg enitociclib (30% PEG400, 10% ethanol, water), or corresponding vehicle treatments. Mice were around 10–12 weeks of age at the start of study. All animal experiments were performed under the national animal welfare laws of Germany and approved by the local authorities.
# Statistical analyses were performed using GraphPad Prism v9 (GraphPad Software). For tumor volumes in SU-DHL-10 xenograft model, statistics were performed using unpaired t test in comparison with the corresponding vehicle treatment. The obtained P values were adjusted for all analyses. Results were considered statistically significant when P < 0.05.
# MYC mRNA in whole blood = MYC mRNA in whole blood of patients (RNA-seq, PK/PD modeling); assay type: in vivo, human; conditions: for maximum extent of inhibition for MYC mRNA: C1D1, 30 mg; for MYC mRNA downregulation: C1D15, third weekly 30 mg dose; for mean fold change mRNA levels of MYC: after C1D1 dose; for mean fold change mRNA levels of MYC / MYC mRNA fold change: RNA-seq; for MYC mRNA fold change: after C1D15 dose
# Procedure: Total RNA was extracted from blood of patients and cell lines using RNeasy Plus Mini Kit (QIAGEN, #74136) and cDNA prepared with the Maxima First Strand cDNA Synthesis Kit for RT-PCR (Thermo Fisher Scientific, K1642) according to manufacturer's instructions. The integrity of purified total RNA was evaluated using an Agilent 2100 Bioanalyzer system and RNA 6000 Nano Kit (Agilent, #5067-1511). Differential gene expression analysis was performed (Fios Genomics) from RNA-seq data (Discovery Life Sciences). MYC and MCL1 mRNA levels were measured by qPCR in vitro and in vivo, using a Taqman qPCR system (Thermo Fisher Scientific), TaqMan Fast Universal PCR Master Mix (2X) no AmpErase (#4352042) and TaqMan probes for MYC (Hs00153408_m1) and MCL1 (Hs03043899_m1). RNA-seq data were analyzed using DESeq2 ([35]).
# Fifteen patients with refractory or relapsed DH-DLBCL or other MYC+ NHL were treated with enitociclib (30 mg, 21-day cycle, once weekly x3) as a 30-minute intravenous infusion on study days 1, 8, and 15 (NCT02635672). Longitudinal gene expression levels were analyzed by RNA-seq, and enitociclib plasma concentrations were measured using LC/MS-MS. The clinical study protocol was approved by the Institutional Review Board of participating institutions and complied with the Declaration of Helsinki, current Good Clinical Practice guidelines, and local laws and regulations. Written informed consent was provided by all participants prior to the initiation of any study-specific procedure.
# All pharmacokinetic parameters were calculated by noncompartmental methods as described previously ([36]) using WinNonlin v5.3 (Certara LP). Pharmacokinetic/pharmacodynamic modeling was performed using SAAM II v2.3.2 (The Epsilon Group). Pooled pharmacokinetic data from all patients [n = 15 for single dose, cycle 1 day 1 (C1D1) and n = 11 for multiple doses, cycle 1 day 15 (C1D15)] were characterized using a one-compartment model with intravenous dosing. Subsequently, the pharmacokinetic/pharmacodynamic relationship of enitociclib plasma concentrations to MCL1 and MYC mRNA change was characterized using an indirect response model ([37]) on pooled biomarker data where enitociclib concentrations inhibit the formation of MCL1 or MYC mRNA as described by the following equation: […]
# PD is defined as MCL1 or MYC mRNA expression level as a percentage from baseline, t (h) is the time, kin (1/h) is the formation rate of MCL1 or MYC, IC50 (µg/L) is the enitociclib concentration where there is 50% inhibition of PD, kout (h^−1) is the rate constant describing the loss of PD, and n is the hill coefficient. At homeostasis, kin = kout (PD); therefore, kout was replaced by kin/(PD)initial where (PD)initial is equal to 100%. Estimates of pharmacokinetic and pharmacodynamic parameters from pharmacokinetic/pharmacodynamic modeling of pooled data are presented as the estimate followed by CV in parentheses.
# RNA-seq data generated from the analysis of two cell lines treated with the three CDK9 inhibitors was analyzed to investigate the differences in gene expression levels between various posttreatment timepoints and the pretreatment samples. Quality control assessment and exploratory data analysis by principal component analysis (PCA) were done on raw counts and on normalized count data. Normalization of RNA-seq count data was done using trimmed mean of M-values normalization and transformed with voom, resulting in log2 counts per million with associated precision weights. […] Significance values (Padj) were adjusted for multiple testing, by controlling the FDR using the Benjamini–Hochberg procedure. […] RNA-seq data generated from blood samples taken from patients before and after their first dose (C1D1) or after multiple doses, before and after their third dose (C1D15) were analyzed and normalized using the same pipeline as cell lines for comparisons.
# [1] = Fraction unbound (fu) used for patient unbound Cmax; assay type: in vitro ADME; conditions: human, plasma; patients
structure (smiles),measurement,setting,value
COc1cc(F)ccc1-c1cc(Nc2cc(CS(C)(=N)=O)ccn2)ncc1F (stereo not shown) [enitociclib],IC50,SU-DHL-4,43 nM
same,antitumor efficacy (in words),SU-DHL-10 xenografts; 10 mg/kg i.v. once weekly,tumor growth control
same,treatment/control (T/C) value,"SU-DHL-10 xenografts; 10 mg/kg i.v. once weekly, day 16 after treatment start, P = 0.011",0.19
same,antitumor efficacy (in words),"SU-DHL-10 xenografts; 15 mg/kg i.v. once weekly, 3-week treatment period",complete regression
same,treatment/control (T/C) value,"SU-DHL-10 xenografts; 15 mg/kg i.v. once weekly, day 20 after treatment start, P < 0.001",0.005
same,"tumor growth inhibition reaching, of control",SU-DHL-10 xenografts; SU-DHL-10 xenografts,0.5 % of control
same,maximum extent of inhibition for MYC mRNA,"MYC mRNA in whole blood; other MYC+ NHL (n = 5), range 69.9%–90.5%",82.3%
same,maximum extent of inhibition for MYC mRNA,"MYC mRNA in whole blood; patients with DH-DLBCL (n = 10), range 73.6%–94.8%",89.6%
same,MYC mRNA downregulation,"MYC mRNA in whole blood; DH-DLBCL (n = 9), range 96.85%–50%",86.71%
same,MYC mRNA downregulation,"MYC mRNA in whole blood; other MYC+ NHL (n = 3), range 53.7%–86.9%",71.08%
same,mean fold change mRNA levels of MYC,MYC mRNA in whole blood; DH-DLBCL,−3.45 (SD 0.68)
same,MYC mRNA fold change,MYC mRNA in whole blood; DH-DLBCL,−3.38 (SD 1.07)
same,IC50,"MYC mRNA in whole blood; Homo sapiens, PK/PD indirect response model, pooled patient blood data, read-out: model estimated unbound IC50 for MYC mRNA",17.4 to 22 nM
same,mean fold change mRNA levels of MYC,MYC mRNA in whole blood; other MYC+ NHL,−2.61 (SD 0.54)
same,MYC mRNA fold change,MYC mRNA in whole blood; other MYC+ NHL,−1.97 (SD 0.75)
same,fraction unbound,[1],0.0665

# From publication PMC10634346 (Cancer Research Communications, 2023)
